What was measured:
UM-UC-3 = experiment: Selectivity evaluation, cytotoxicity in UM-UC-3; assay type: cell-based; settings: Homo sapiens, UMUC3; UM-UC-3 (malignant), 72 hours, ATP detection
Experimental: (§1) Commercially available bladder cancer cell lines were treated with trypsin-EDTA and seeded in each well of a 96 well plate, followed by incubation for 24 hours. After incubation, candidate compounds were added to each well at a final concentration of 0 to 2 μM. The compound-treated cells were further incubated for 72 hours. Cell viability was measured using an ATP detection method (CellTiter-Glo® Luminescent Cell Viability Assay, Promega).
(§2) The selectivity of the compounds of the present disclosure to cancer cells was evaluated in the same manner as described in “2. Cell based assay”.
UM-UC-3: human urinary bladder transitional cell carcinoma

253J = experiment: Selectivity evaluation, cytotoxicity in 253J; assay type: cell-based; settings: Homo sapiens; 253J (malignant), 72 hours, ATP detection
Experimental: as §1, §2
253J: human urinary tract transitional cell carcinoma

recombinant c-Myc/Max = target: T1, recombinant c-Myc/Max (Homo sapiens, UniProt P01106+P61244); experiment: Electrophoretic mobility shift assay (EMSA): inhibitory activity on DNA binding of recombinant c-Myc/Max; settings: read-out: protein assay IC50
T1 construct: made in house
Outline: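 Protein mixture preincubated 5 min at room temperature, compound in DMSO added for 5 min, then biotinylated annealed E-box DNA for 10 min to equilibrium. Complexes resolved on 8% polyacrylamide in 1×TBE (120 V, 1 h), detected with HRP-streptavidin/ECL; protein-DNA complex ratio from band intensity.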

Mouse = experiment: IV and IP single toxicity test; assay type: in vivo; settings: for Percentage (deaths), single toxicity evaluation: Mouse

T1 sequence (P01106 whole entry): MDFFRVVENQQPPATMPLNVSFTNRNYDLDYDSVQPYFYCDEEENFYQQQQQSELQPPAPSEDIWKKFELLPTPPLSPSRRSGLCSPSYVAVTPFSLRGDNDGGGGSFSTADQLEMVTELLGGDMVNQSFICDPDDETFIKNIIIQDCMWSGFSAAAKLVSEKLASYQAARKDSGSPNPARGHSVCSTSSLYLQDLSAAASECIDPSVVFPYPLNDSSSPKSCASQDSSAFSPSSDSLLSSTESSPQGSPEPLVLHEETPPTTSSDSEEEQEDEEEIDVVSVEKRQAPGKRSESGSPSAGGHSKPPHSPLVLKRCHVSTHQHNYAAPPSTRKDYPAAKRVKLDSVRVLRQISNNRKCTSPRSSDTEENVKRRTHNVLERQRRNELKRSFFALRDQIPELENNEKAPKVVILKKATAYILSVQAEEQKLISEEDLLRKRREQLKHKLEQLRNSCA
T1 sequence (P61244 whole entry): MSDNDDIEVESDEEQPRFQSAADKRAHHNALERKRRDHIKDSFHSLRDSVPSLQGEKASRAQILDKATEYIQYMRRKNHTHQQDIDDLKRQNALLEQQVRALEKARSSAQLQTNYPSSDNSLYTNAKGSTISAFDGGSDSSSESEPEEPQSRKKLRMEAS

CC(=O)c1c([S+]([O-])Cc2ccc([N+](=O)[O-])cc2)[nH]c2c(Br)ccc(Cl)c2c1=O (stereo not drawn) [Compound 33, 3-acetyl-8-bromo-5-chloro-2-((4-nitrobenzyl)sulfinyl)quinolin-4(1H)-one]
IC50 (UM-UC-3): 1.6 µM
IC50 (253J): 1.6 µM
IC50 (recombinant c-Myc/Max): < 1 µM

CC(=O)c1c([S+]([O-])Cc2ccccc2)nc2c(Br)ccc(Cl)c2c1O (stereo not drawn) [Compound 4, 3-acetyl-2-(benzylsulfinyl)-8-bromo-5-chloroquinolin-4(1H)-one]
IC50 (UM-UC-3): 1.5 µM
IC50 (253J): 1.1 µM
deaths (Mouse; IV and IP single-dose administration, 40 mpk, 40 mg/kg): No deaths were observed
Percentage (deaths), single toxicity evaluation (Mouse; Female, IP 40 mg/kg): 0 (0/2) %
Percentage (deaths), single toxicity evaluation (Mouse; Female, IV 40 mg/kg): 0 (0/2) %
Percentage (deaths), single toxicity evaluation (Mouse; Male, IP 40 mg/kg): 0 (0/2) %

CC(=O)c1c([S+]([O-])Cc2ccccc2)n(C(=O)c2ccc(Br)cc2)c2c(Br)ccc(Cl)c2c1=O (stereo not drawn) [Compound 20, 3-acetyl-2-(benzylsulfinyl)-8-bromo-1-(4-bromobenzoyl)-5-chloroquinolin-4(1H)-one]
IC50 (recombinant c-Myc/Max): < 1 µM

COc1cc(S(F)(F)(F)(F)F)ccc1C[S+]([O-])c1[nH]c2c(Br)ccc(Cl)c2c(=O)c1C(C)=O (stereo not drawn) [Compound 75, 3-acetyl-8-bromo-5-chloro-2-((2-methoxy-4-(pentafluoro-λ6-sulfanyl)benzyl)sulfinyl)quinolin-4(1H)-one]
IC50 (recombinant c-Myc/Max): < 1 µM

CC(=O)c1c(SC(C)C)[nH]c2c(Br)ccc(Cl)c2c1=O [Compound 24, 3-acetyl-8-bromo-5-chloro-2-(isopropylthio)quinolin-4(1H)-one]
IC50 (recombinant c-Myc/Max): < 1 µM

CC(=O)c1c([S+]([O-])Cc2nonc2C)[nH]c2c(Br)ccc(Cl)c2c1=O (stereo not drawn) [Compound 106, 3-acetyl-8-bromo-5-chloro-2-(((4-methyl-1,2,5-oxadiazol-3-yl)methyl)sulfinyl)quinolin-4(1H)-one]
IC50 (recombinant c-Myc/Max): < 1 µM

CC(=O)c1c([S+]([O-])Cc2ccc(-n3cccn3)nc2)[nH]c2c(Br)ccc(Cl)c2c1=O (stereo not drawn) [Compound 99, 2-(((6-(1H-pyrazol-1-yl)pyridin-3-yl)methyl)sulfinyl)-3-acetyl-8-bromo-5-chloroquinolin-4(1H)-one]
IC50 (recombinant c-Myc/Max): < 1 µM

CC(=O)c1c([S+]([O-])Cc2ccc(C(=O)c3ccccc3)cc2)[nH]c2c(Br)ccc(Cl)c2c1=O (stereo not drawn) [Compound 63, 3-acetyl-2-((4-benzoylbenzyl)sulfinyl)-8-bromo-5-chloroquinolin-4(1H)-one]
IC50 (recombinant c-Myc/Max): < 1 µM

CC(C)C(=O)c1c([S+]([O-])Cc2ccc(SC(F)(F)F)cc2)[nH]c2c(F)ccc(F)c2c1=O (stereo not drawn) [Compound 85, 5,8-difluoro-3-isobutyryl-2-((4-((trifluoromethyl)thio)benzyl)sulfinyl)quinolin-4(1H)-one]
IC50 (recombinant c-Myc/Max): < 1 µM

CC(=O)c1c([S+](C)[O-])n(S(=O)(=O)c2ccc(C(C)(C)C)cc2)c2c(Br)ccc(Cl)c2c1=O (stereo not drawn) [Compound 42, 3-acetyl-8-bromo-1-((4-(tert-butyl)phenyl)sulfonyl)-5-chloro-2-(methylsulfinyl)quinolin-4(1H)-one]
IC50 (recombinant c-Myc/Max): < 1 µM

Cc1cc(C[S+]([O-])c2[nH]c3c(Cl)ccc(Cl)c3c(=O)c2C(=O)c2ccccc2)no1 (stereo not drawn) [Compound 88, 3-benzoyl-5,8-dichloro-2-(((5-methylisoxazol-3-yl)methyl)sulfinyl)quinolin-4(1H)-one]
IC50 (recombinant c-Myc/Max): < 1 µM

CC(=O)c1c([S+]([O-])c2ccc(Br)cc2)[nH]c2c(Br)ccc(Cl)c2c1=O (stereo not drawn) [Compound 17, 3-acetyl-8-bromo-2-((4-bromophenyl)sulfinyl)-5-chloroquinolin-4(1H)-one]
IC50 (recombinant c-Myc/Max): < 1 µM

CC(=O)c1c([S+]([O-])CN2C(=O)c3ccccc3C2=O)[nH]c2c(Cl)ccc(Cl)c2c1=O (stereo not drawn) [Compound 90, 2-(((3-acetyl-5,8-dichloro-4-oxo-1,4-dihydroquinolin-2-yl)sulfinyl)methyl)isoindoline-1,3-dione]
IC50 (recombinant c-Myc/Max): < 1 µM

CC(=O)c1c([S+]([O-])Cc2ccccc2)nc2c(Br)ccc(Cl)c2c1O (stereo not drawn) [Compound 53, 1-(2-(benzylsulfinyl)-8-bromo-5-chloro-4-hydroxyquinolin-3-yl)ethan-1-one]
IC50 (recombinant c-Myc/Max): < 1 µM

CC(=O)c1c([S+]([O-])Cc2ccc([N+](=O)[O-])cc2)[nH]c2c(Cl)ccc(Cl)c2c1=O (stereo not drawn) [Compound 57, 3-acetyl-5,8-dichloro-2-((4-nitrobenzyl)sulfinyl)quinolin-4(1H)-one]
IC50 (recombinant c-Myc/Max): < 1 µM

CSc1c(C(C)=O)c(=O)c2c(Cl)ccc(Br)c2n1C(C)=O [Compound 18, 1,1′-(8-bromo-5-chloro-2-(methylthio)-4-oxoquinoline-1,3(4H)-diyl)bis(ethan-1-one)]
IC50 (recombinant c-Myc/Max): < 1 µM

CC(=O)c1c([S+]([O-])Cc2ccc(SC(F)(F)F)cc2)[nH]c2c(Cl)ccc(Cl)c2c1=O (stereo not drawn) [Compound 79, 3-acetyl-5,8-dichloro-2-((4-((trifluoromethyl)thio)benzyl)sulfinyl)quinolin-4(1H)-one]
IC50 (recombinant c-Myc/Max): < 1 µM

CC(=O)c1c(SCc2cccc(F)c2)[nH]c2c(Br)ccc(Cl)c2c1=O [Compound 49, 3-acetyl-8-bromo-5-chloro-2-((3-fluorobenzyl)thio)quinolin-4(1H)-one]
IC50 (recombinant c-Myc/Max): < 1 µM

COc1ccccc1Sc1[nH]c2c(Br)ccc(Cl)c2c(=O)c1C(C)=O [Compound 14, 3-acetyl-8-bromo-5-chloro-2-((2-methoxyphenyl)thio)quinolin-4(1H)-one]
IC50 (recombinant c-Myc/Max): < 1 µM

CC(=O)c1c([S+]([O-])Cc2cc(C)on2)[nH]c2c(Br)ccc(Cl)c2c1=O (stereo not drawn) [Compound 51, 3-acetyl-8-bromo-5-chloro-2-(((5-methylisoxazol-3-yl)methyl)sulfinyl)quinolin-4(1H)-one]
IC50 (recombinant c-Myc/Max): < 1 µM

CC(=O)c1c([S+]([O-])Cc2ccc(C#N)cc2)[nH]c2c(Br)ccc(Cl)c2c1=O (stereo not drawn) [Compound 73, 4-(((3-acetyl-8-bromo-5-chloro-4-oxo-1,4-dihydroquinolin-2-yl)sulfinyl)methyl)benzonitrile]
IC50 (recombinant c-Myc/Max): < 1 µM

O=C(c1c([S+]([O-])Cc2ccc(SC(F)(F)F)cc2)[nH]c2c(Br)ccc(Cl)c2c1=O)C1CC1 (stereo not drawn) [Compound 101, 8-bromo-5-chloro-3-(cyclopropanecarbonyl)-2-((4-((trifluoromethyl)thio)benzyl)sulfinyl)quinolin-4(1H)-one]
IC50 (recombinant c-Myc/Max): < 1 µM

CC(=O)c1c([S+]([O-])C(C)c2ccccc2)[nH]c2c(Br)ccc(Cl)c2c1=O (stereo not drawn) [Compound 26, 3-acetyl-8-bromo-5-chloro-2-((1-phenylethyl)sulfinyl)quinolin-4(1H)-one]
IC50 (recombinant c-Myc/Max): < 1 µM

CSc1[nH]c2ccc(F)cc2c(=O)c1C(C)=O [Compound 8, 1-(6-fluoro-4-hydroxy-2-(methylthio)quinolin-3-yl)ethan-1-one]
IC50 (recombinant c-Myc/Max): < 1 µM

CC(=O)c1c([S+]([O-])Cc2ccc(Cl)nc2)[nH]c2c(Br)ccc(Cl)c2c1=O (stereo not drawn) [Compound 104, 3-acetyl-8-bromo-5-chloro-2-(((6-chloropyridin-3-yl)methyl)sulfinyl)quinolin-4(1H)-one]
IC50 (recombinant c-Myc/Max): < 1 µM

CC(=O)c1c(SCC#N)[nH]c2c(Br)ccc(Cl)c2c1=O [Compound 66, 2-((3-acetyl-8-bromo-5-chloro-4-oxo-1,4-dihydroquinolin-2-yl)thio)acetonitrile]
IC50 (recombinant c-Myc/Max): < 1 µM

Source: patent publication US9951021B2, “Compounds for inhibiting c-Myc/Max/DNA complex formation” (NATIONAL CANCER CENTER, priority 2016, dated 2018)
